Data published in ChEMBL document CHEMBL5260819, “Design and synthesis of 2-phenylpyrimidine coumarin derivatives as anticancer agents” (Bioorg Med Chem Lett, 2017).
Activity calls are given as the source filed them. The rule behind the calls is not given here.

Tests used:
CAL-27 = test: Anticancer activity against human CAL-27 cells assessed as inhibition of cell growth; format: functional, cell-based
CNE-2 [1] = test: Anticancer activity against human CNE-2 cells assessed as inhibition of cell growth; format: functional, cell-based
KB = test: Anticancer activity against human KB cells assessed as inhibition of cell growth; format: functional, cell-based
[2] = molecular target: Telomerase reverse transcriptase (Homo sapiens, UniProt O14746); test: Inhibition of telomerase activity in human CNE-2 cells; format: cell-based
Sequence of Telomerase reverse transcriptase (O14746 whole entry): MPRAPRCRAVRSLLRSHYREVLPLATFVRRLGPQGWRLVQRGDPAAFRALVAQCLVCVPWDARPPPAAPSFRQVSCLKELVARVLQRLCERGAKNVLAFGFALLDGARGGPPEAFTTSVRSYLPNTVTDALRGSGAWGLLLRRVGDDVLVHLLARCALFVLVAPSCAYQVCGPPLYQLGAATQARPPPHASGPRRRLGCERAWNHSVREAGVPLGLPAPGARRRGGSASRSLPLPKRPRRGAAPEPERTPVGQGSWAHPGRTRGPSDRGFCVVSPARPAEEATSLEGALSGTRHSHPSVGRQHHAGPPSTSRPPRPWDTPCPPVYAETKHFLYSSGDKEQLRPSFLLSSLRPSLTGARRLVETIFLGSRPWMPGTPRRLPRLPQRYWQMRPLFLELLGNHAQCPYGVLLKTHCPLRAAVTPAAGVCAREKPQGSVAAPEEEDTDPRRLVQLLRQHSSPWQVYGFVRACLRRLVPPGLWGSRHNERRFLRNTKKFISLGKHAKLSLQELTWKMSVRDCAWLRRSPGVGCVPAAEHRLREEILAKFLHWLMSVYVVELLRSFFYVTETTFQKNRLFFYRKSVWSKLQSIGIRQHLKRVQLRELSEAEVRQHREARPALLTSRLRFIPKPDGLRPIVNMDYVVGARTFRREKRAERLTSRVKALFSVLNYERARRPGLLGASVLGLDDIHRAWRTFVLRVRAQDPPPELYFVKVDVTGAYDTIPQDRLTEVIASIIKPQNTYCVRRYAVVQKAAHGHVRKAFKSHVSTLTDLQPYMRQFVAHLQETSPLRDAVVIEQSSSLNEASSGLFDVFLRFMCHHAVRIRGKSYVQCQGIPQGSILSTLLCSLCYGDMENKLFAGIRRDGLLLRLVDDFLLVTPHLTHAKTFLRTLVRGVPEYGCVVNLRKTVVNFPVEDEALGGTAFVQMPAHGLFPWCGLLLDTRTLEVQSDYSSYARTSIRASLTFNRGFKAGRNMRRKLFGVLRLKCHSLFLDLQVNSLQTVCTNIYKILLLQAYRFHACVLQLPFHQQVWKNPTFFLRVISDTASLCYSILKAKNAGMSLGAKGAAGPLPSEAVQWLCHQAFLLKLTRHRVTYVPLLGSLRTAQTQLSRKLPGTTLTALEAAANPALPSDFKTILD

CNE-2 [3] = test: Induction of apoptosis in human CNE-2 cells assessed as late apoptotic cells at 1 uM incubated for 4 days by annexin V-FITC/PI double-staining method (reference value: 0.1%); format: functional; details: time 4 day
CNE-2 [4] = test: Induction of apoptosis in human CNE-2 cells assessed as dead cells at 1 uM incubated for 4 days by annexin V-FITC/PI double-staining method (reference value: 0%); format: functional; details: time 4 day
CNE-2 [5] = test: Anticancer activity against human CNE-2 cells assessed as shortening of telomer length at 0.5 uM incubated for 8 days by TRF analysis; format: functional, cell-based; details: time 8.0 day
CNE-2 [6] = test: Induction of apoptosis in human CNE-2 cells assessed as early apoptotic cells at 1 uM incubated for 4 days by annexin V-FITC/PI double-staining method (reference value: 8%); format: functional; details: time 4 day
CNE-2 [7] = test: Anticancer activity against human CNE-2 cells assessed as induction of senescence by measuring shortening of telomer length at 0.5 to 1 uM incubated for 8 days by TRF analysis; format: functional, cell-based; details: dose 0.5-1 µM, time 8.0 day
CNE-2 [8] = test: Induction of apoptosis in human CNE-2 cells assessed as live cells at 1 uM incubated for 4 days by annexin V-FITC/PI double-staining method (reference value: 91.9%); format: functional; details: time 4 day
CNE-2 [9] = test: Induction of apoptosis in human CNE-2 cells assessed as early apoptotic cells at 0.5 uM incubated for 4 days by annexin V-FITC/PI double-staining method (reference value: 8%); format: functional; details: time 4 day
CNE-2 [10] = test: Induction of apoptosis in human CNE-2 cells assessed as late apoptotic cells at 0.5 uM incubated for 4 days by annexin V-FITC/PI double-staining method (reference value: 0.1%); format: functional; details: time 4 day
CNE-2 [11] = test: Induction of apoptosis in human CNE-2 cells assessed as dead cells at 0.5 uM incubated for 4 days by annexin V-FITC/PI double-staining method (reference value: 0%); format: functional; details: time 4 day
CNE-2 [12] = test: Induction of apoptosis in human CNE-2 cells assessed as live cells at 0.5 uM incubated for 4 days by annexin V-FITC/PI double-staining method (reference value: 91.9%); format: functional; details: time 4 day
CNE-2 [13] = test: Anticancer activity against human CNE-2 cells assessed as reduction in telomer length at 1 uM incubated for 8 days by TRF analysis; format: functional; details: time 8 day

`Nc1nc(-c2cccc(OS(=O)(=O)c3ccc(C(F)(F)F)cc3)c2)nc2c1c(=O)oc1ccccc12` was tested, and the IC50 (CAL-27) was 4.32 µM, the IC50 (CNE-2 [1]) was 2.34 µM and the IC50 (KB) was 7.35 µM.
In the case of `COC(=O)c1ccc(S(=O)(=O)Oc2cccc(-c3nc(N)c4c(=O)oc5ccccc5c4n3)c2)s1`, the IC50 (CAL-27) is reported as 47.5 µM, the IC50 (CNE-2 [1]) is reported as over 100 µM and the IC50 (KB) is reported as 38.4 µM.
`Nc1nc(-c2cccc(OS(=O)(=O)c3ccc(Cl)s3)c2)nc2c1c(=O)oc1ccccc12` showed an IC50 (CAL-27) of 11.2 µM, an IC50 (CNE-2 [1]) of 14.6 µM and an IC50 (KB) of 20.9 µM.
`Nc1nc(-c2cccc(OS(=O)(=O)c3ccc(Br)s3)c2)nc2c1c(=O)oc1ccccc12` was tested, and the IC50 (CAL-27) was 18.3 µM, the IC50 (CNE-2 [1]) was 18.6 µM and the IC50 (KB) was 36.2 µM.
Compound `Nc1nc(-c2cccc(OS(=O)(=O)c3ccc(F)cc3)c2)nc2c1c(=O)oc1ccccc12` has an IC50 (CAL-27) of 4.91 µM, an IC50 (CNE-2 [1]) of 4.23 µM and an IC50 (KB) of 11.6 µM.
With `Nc1nc(-c2cccc(OS(=O)(=O)c3ccc([N+](=O)[O-])cc3)c2)nc2c1c(=O)oc1ccccc12` the IC50 (CAL-27) was 3.54 µM, the IC50 (CNE-2 [1]) was 16.2 µM and the IC50 [2] was 21.1 µM. The IC50 (KB) was 17 µM.
For `Nc1nc(-c2cccc(OS(=O)(=O)c3ccccc3)c2)nc2c1c(=O)oc1ccccc12`, the IC50 (CAL-27) was 2.58 µM, the IC50 (CNE-2 [1]) was 3.44 µM and the IC50 [2] was 3.16 µM. It also gave an IC50 (KB) of 6.74 µM.
For `COc1cccc2c1C(=O)c1c(O)c3c(c(O)c1C2=O)C[C@@](O)(C(=O)CO)C[C@@H]3O[C@H]1C[C@H](N)[C@H](O)[C@H](C)O1` [DOXORUBICIN], the IC50 (CAL-27) was 1.56 µM, the IC50 (CNE-2 [1]) was 2.12 µM and the IC50 (KB) was 3.04 µM.
Work on `COc1ccc(S(=O)(=O)Oc2cccc(-c3nc(N)c4c(=O)oc5ccccc5c4n3)c2)cc1` yielded an IC50 (CAL-27) of 9.63 µM, an IC50 (CNE-2 [1]) of 16.6 µM and an IC50 (KB) of 18.6 µM.
In the case of `Nc1nc(-c2cccc(OS(=O)(=O)c3ccc(Br)cc3)c2)nc2c1c(=O)oc1ccccc12`, the IC50 (CAL-27) is reported as 18.1 µM, the IC50 (CNE-2 [1]) is reported as 11.1 µM and the IC50 (KB) is reported as 15.8 µM.
In the case of `CN(C)c1ccc(S(=O)(=O)Oc2cccc(-c3nc(N)c4c(=O)oc5ccccc5c4n3)c2)cc1`, the Activity (CNE-2 [3]) is reported as 15.4%, the IC50 (CAL-27) is reported as 1.97 µM and the Activity (CNE-2 [4]) is reported as 0%. For the same compound, the Activity (CNE-2 [5]) was “Active”, the IC50 (CNE-2 [1]) was 1.92 µM and the Activity (CNE-2 [6]) was 39.5%. For the same compound, the Activity (CNE-2 [7]) was “Active”, the Activity (CNE-2 [8]) was 45.2% and the Activity (CNE-2 [9]) was 28.2%. The Activity (CNE-2 [10]) was 6.7%, the Activity (CNE-2 [11]) was 0.1% and the IC50 [2] was 0.82 µM. It also gave an Activity (CNE-2 [12]) of 65%, an Activity (CNE-2 [13]) of 0.8 kilobase and an IC50 (KB) of 3.72 µM.
`Nc1nc(-c2cccc(OS(=O)(=O)c3cccs3)c2)nc2c1c(=O)oc1ccccc12` showed an IC50 (CAL-27) of 10.1 µM, an IC50 (CNE-2 [1]) of 4.24 µM and an IC50 [2] of 7.35 µM. The IC50 (KB) was 5.62 µM.
`CS(=O)(=O)Oc1cccc(-c2nc(N)c3c(=O)oc4ccccc4c3n2)c1` was tested, and the IC50 (CAL-27) was over 100 µM, the IC50 (CNE-2 [1]) was over 100 µM and the IC50 [2] was 58.6 µM. It also gave an IC50 (KB) of over 100 µM.
In the case of `COc1ccc(S(=O)(=O)Oc2cccc(-c3nc(N)c4c(=O)oc5ccccc5c4n3)c2)cc1OC`, the IC50 (CAL-27) is reported as 17.6 µM, the IC50 (CNE-2 [1]) is reported as 20.6 µM and the IC50 [2] is reported as 6.32 µM. It also gave an IC50 (KB) of 29.7 µM.
